Reference: US8357501B2, “Tissue protective erythropoietin receptor (NEPOR) and methods of use” (Molecular Health GmbH, priority 2007, dated 2013)
Where two headings read alike, the source gives them in different places. [5mC] = 5-methylcytosine

Assays:
[1] = 351 patients receiving radiotherapy; 3 times per week, from 10 to 14 days before and through radiation therapy; placebo 15%; cited from earlier work
erythropoiesis = conditions: cited from earlier work
tissue injury = conditions: wide variety of in vivo and in vitro models, cited from earlier work
[2] = tested on: EphB4 expression in the transiently transfected 293T cell line; test: EphB4 knockdown by antisense ODN in transiently transfected cells; format: cell-based; conditions: cytosine at the CpG site methylated, compared with AS-10; data not shown
HeyA8-MDR cells = test: EPH-B4 siRNA effect on tumor promoting effect of EPO in nude mice (FIG. 17); format: in vivo; conditions: HeyA8 MDR i.p.
Procedure: Female nude mice were injected i.p. with 1×10^6 HeyA8-MDR cells. Day eight following injection the cells were treated with control siRNA-DOPC, EPH-B4 siRNA-DOPC, EPO, or in EPO+ control or EPH-B4 siRNA-DOPC (10 per group). (50 U EPO given 3× week, 5 μg siRNA 2× week). Mice were sacrificed on day 25 and tumor weights were measured. Statistics were done using students T-test. B) Distribution of tumor weight per group.
In these experiments we sought to determine the response to erythropoietin (EPO) treatment in a panel of ovarian cancer cell lines. […] It was then necessary to determine protein expression of these receptors in the panel. […] We then categorized these expression changes particularly with regard to the EPOR and EPH-B4 to then analyze the response to EPO treatment. We analyzed their response to chemotherapy in conjunction with EPO. […] It was then necessary to analyze the activation of signaling pathways known to be activated by these receptors in response to EPO treatment. Three cell lines were starved for two hours to isolate their response to EPO. […] We then sought to determine a EPO dose that optimized its tumor promoting effect in vivo. Female nude mice were injected i.p. with HeyA8 MDR (positive for both EPOR and EPH-B4). […] Treatment continued until tumors became evident, the mice were then sacrificed and the tumor weight was determined. […]

## epoetin beta: EPO in the form of epoetin beta, NeoRecormon from Roche
[1]
  patients with increased haemoglobin levels: 82%

## CEpo: carbamylated Epo, does not stimulate erythropoiesis (Leist et al.)
erythropoiesis
  stimulation of erythropoiesis / haematopoiesis: does not stimulate
erythropoiesis; listed as carbamylated EPO
  stimulation of erythropoiesis / haematopoiesis: fail to induce haematopoiesis
Tissue injury
  tissue injury / neuroprotection: prevents
Tissue injury; listed as carbamylated EPO
  tissue injury / neuroprotection: neuroprotective

## AS-10M: antisense ODN AS-10 with the cytosine at the CpG site methylated (ATGGAGGCCTCGCTCAGAAA; DNA, [5mC] at 11, backbone and methylation of C not given here; listed as Homo sapiens)
[2]
  EphB4 knockdown efficiency: without any loss

## EPH-B4 siRNA: siRNA specific to EPH-B4, sense 5′CAGCCAAUAGCCACUCUAA3′ (SEQ ID NO: 266), antisense 5′UUAGAGUGGCUAUUGGCUG3′ (SEQ ID NO: 267) (listed as RNA, chemistry not given here; listed as Homo sapiens)
HeyA8-MDR cells; siRNA 5 μg 2× week in conjunction with EPO 50 U 3× week
  EPO induced tumor growth: completely abrogated
HeyA8-MDR cells; siRNA alone, 5 μg siRNA 2× week from day eight
  tumor growth: decrease
